The structures appear in SMILES notation. “And” between values parts separate entries of the source, which are not always exact repeats. Equal values may be shown once.

Broadly, the IC50 is the concentration that inhibits the measured activity by half.

The target in one series is MEK1 (Homo sapiens, UniProt Q02750). As to the kind of experiment: Cascade assay with raf-1, MEK1 and ERK1 (DELFIA readout). In kind it is biochemical. Particulars: purified MEK1, cascade assay raf-1/MEK1/ERK1; read-out: MEK enzyme IC50.
Chain of MEK1 (Q02750 whole entry, species assumed): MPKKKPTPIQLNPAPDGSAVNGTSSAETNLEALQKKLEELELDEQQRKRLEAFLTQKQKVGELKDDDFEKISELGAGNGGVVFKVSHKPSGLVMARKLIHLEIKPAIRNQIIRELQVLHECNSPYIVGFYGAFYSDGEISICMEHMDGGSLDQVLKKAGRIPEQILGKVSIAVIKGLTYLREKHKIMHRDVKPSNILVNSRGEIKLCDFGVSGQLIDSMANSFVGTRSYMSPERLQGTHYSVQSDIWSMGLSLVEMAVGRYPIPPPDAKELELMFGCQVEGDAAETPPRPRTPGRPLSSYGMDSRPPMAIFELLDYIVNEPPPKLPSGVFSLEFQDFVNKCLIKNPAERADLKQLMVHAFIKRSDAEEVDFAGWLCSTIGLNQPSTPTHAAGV
The test system of series [1] is ERK phosphorylation in tumor cells. Nature of the series: ERK phosphorylation in tumor cells grown in culture with 10% serum. It counts as cell-based. Particulars: tumor cells in culture, 10% serum; read-out: IC50, reducing ERK phosphorylation.
Another series has as its system pERK in C26 tumors. As to the kind of experiment: Tumor pERK inhibition and PK-PD in C26 tumor-bearing mice. It counts as in vivo. Particulars: C26 tumor-bearing animals.
Series [2] in a line: Metabolites of [14C] Compound 1 in cryopreserved hepatocytes. It counts as in vitro ADME, human. Particulars: [C-14] Compound 1 10 μM, 180 mins, listed as M 15. As for the experimental part:
(§1) Incubations were performed in hepatocytes for 3 hours and liver microsomes for 1.5 hours and were stopped with the addition of methanol. HPLC, in conjuction with ionspray 3D iontrap mass spectrometry, and simultaneous radioactive monitoring were used to detect and identify the resulting metabolites.
(§2) Metabolite identification of radiolabeled Compound 1 was performed after incubation with rat, dog, monkey and human cryopreserved hepatocytes and liver microsomes. […] Besides glucuronidation, metabolites derived from other clearance pathways are also observed. For instance, M 15 (acid cleavage product) accounts for 11% of the total radioactivity in the human chromatogram.

Experiment in series [3]: as above
It counts as in vitro ADME, monkey. The note with it: [C-14] Compound 1 10 μM, 180 mins. As for the experimental part: as §1, §2

Experiment in series [4]: as above
In kind it is in vitro ADME, dog. The note with it: [C-14] Compound 1 10 μM, 180 mins. As to the method:
as §1, §2

Experiment in series [5]: as above
In kind it is in vitro ADME, rat. The note with it: [C-14] Compound 1 10 μM, 180 mins. As for the experimental part: as §1, §2

Series [6] can be described thus: Metabolites of [14C] Compound 1 in liver microsomes. It counts as in vitro ADME, human. The note with it: [C-14] Compound 1 10 μM, 90 mins, listed as M 15. As for the experimental part:
as §1
(§3) This acid cleavage product is further metabolized to form hydroxylated (M 11, 16% in rat) and hydroxylated, defluorinated products (M 17, 19% in rat).
(In general: Liver microsomes are a subcellular fraction often used to study metabolism.)

Experiment in series [7]: as above
It counts as in vitro ADME, monkey. The note with it: [C-14] Compound 1 10 μM, 90 mins. As to the method: as §1, §3

Experiment in series [8]: as above
In kind it is in vitro ADME, dog. Particulars: [C-14] Compound 1 10 μM, 90 mins. As to the method:
as §1, §3

Experiment in series [9]: as above
It counts as in vitro ADME, rat. Particulars: [C-14] Compound 1 10 μM, 90 mins. As for the experimental part: as §1, §3

Series [10] in a line: Plasma pharmacokinetics after multiple oral doses in advanced cancer patients. The note with it: for AUC of Compound 2 as % of the parent (median): human plasma.
Description: Pharmacokinetic data are presented for the first 38 subjects.
Blood samples were collected from patients into a purple-top potassium EDTA Vacutainer tube. Following mixing with gentle inversion (8-10 times), tubes were centrifuged within 20 minutes at 1000×g for 15 minutes, to harvest plasma. Plasma samples were stored at −20° C. until analysis.
The following results are based on preliminary pharmacokinetic parameters from the 38 subjects, estimated using nominal collection times and quality-controlled, non quality-assured bioanalytical data. Pharmacokinetic parameters were determined by the non-compartmental method using WINNONLIN Professional Edition (Version 4.1). […] The maximum observed concentration (Cmax) was obtained by inspection of the concentration data. The time to reach the Cmax was the first time at which Cmax is observed and obtained by inspection of the data. The pre-dose concentration (Ctrough) was obtained by inspection of the concentration data.
Series [11] deals with ERK phosphorylation in colon 26 cells. As to the kind of experiment: cells. Particulars: Mus musculus, Colon 26, read-out: Cellular activity IC50.

`O=C(O)c1ccc(F)c(F)c1Nc1ccc(I)cc1F` [Compound 2]: the IC50 on MEK1 came to 66 nM; in series [1], 1300 nM. In the series on pERK in C26 tumors (2 hours after 75 mg/kg IV), the “target suppression of pERK in tumors” value was 98%. Also, the “pERK activity in tumors” value in the series with pERK in C26 tumors (24 hours after 75 mg/kg IV) was “returned to control levels”. In addition, the “% ROI Human” value in series [2] was 11% and 11.07%; in series [6], 9% and 8.73%. Further, the entries for the “% ROI Monkey” value in series [3] and in series [7] were 1.72% and 5.24%, respectively. Moreover, the “% ROI Dog” value in series [4] came to 2.46%; in series [8], 4.12%. The results for the “% ROI Rat” value in series [5] and in [9] were 4.31% and 1.86%, respectively. Besides, in [10] (after 21-day multiple BID dosing of Compound 1), the “increase of AUC of Compound 2” value is reported as 2.0-5.0 fold. The “AUC of Compound 2 as % of the parent (median)” value is recorded as approximately 120% in series [10] (multiple dosing of Compound 1) and “approximately 66%” in series [10] (single dosing of Compound 1). In addition, the “terminal plasma half-life compared with parent” value in [10] (patients, after oral Compound 1) is reported as “longer than that of the parent drug”.

Turning to `O=C(NOC[C@@H](O)CO)c1ccc(F)c(F)c1Nc1ccc(I)cc1F` [Compound 3], the IC50 in series [11] worked out at 0.83 nM.

Values taken from patent US20060154990A1, “Use of MEK inhibitors in treating abnormal cell growth” (AGOURON PHARMACEUTICALS, INC., priority 2004, published 2006).
